Experimental data: the NIST ThermoML archive (doi:10.1016/j.jct.2016.03.026)
± gives the expanded uncertainty stated by the source.

Assay: xn = mol fraction of the nth substance listed
Conditions: 283.15 K, Fluid (supercritical or subcritical phases), Vibrating tube method, x1 = 0.97

`O=C=O` [carbon dioxide] + CO gave a mass density (16550 kPa) of 963.02 ± 0.8 kg/m3, a mass density (16575 kPa) of 963.18 ± 0.8 kg/m3 and a mass density (16600 kPa) of 963.26 ± 0.8 kg/m3. The mass density (16625 kPa) was 963.43 ± 0.8 kg/m3, the mass density (16650 kPa) was 963.51 ± 0.8 kg/m3 and the mass density (16675 kPa) was 963.66 ± 0.8 kg/m3. It also gave a mass density (16700 kPa) of 963.77 ± 0.8 kg/m3, a mass density (16725 kPa) of 963.92 ± 0.8 kg/m3 and a mass density (16750 kPa) of 964 ± 0.8 kg/m3. The mass density (16775 kPa) was 964.16 ± 0.8 kg/m3, the mass density (16800 kPa) was 964.28 ± 0.8 kg/m3 and the mass density (16825 kPa) was 964.4 ± 0.8 kg/m3. It also gave a mass density (16850 kPa) of 964.49 ± 0.8 kg/m3, a mass density (16875 kPa) of 964.65 ± 0.8 kg/m3 and a mass density (16900 kPa) of 964.79 ± 0.8 kg/m3. For the same molecule, the mass density (16925 kPa) was 964.88 ± 0.8 kg/m3, the mass density (16950 kPa) was 964.99 ± 0.8 kg/m3 and the mass density (16975 kPa) was 965.14 ± 0.8 kg/m3. The mass density (17000 kPa) was 965.28 ± 0.8 kg/m3, the mass density (17025 kPa) was 965.37 ± 0.8 kg/m3 and the mass density (17050 kPa) was 965.46 ± 0.8 kg/m3. For the same molecule, the mass density (17075 kPa) was 965.62 ± 0.8 kg/m3, the mass density (17100 kPa) was 965.75 ± 0.8 kg/m3 and the mass density (17125 kPa) was 965.87 ± 0.8 kg/m3. It also gave a mass density (17150 kPa) of 965.97 ± 0.8 kg/m3, a mass density (17175 kPa) of 966.11 ± 0.8 kg/m3 and a mass density (17200 kPa) of 966.25 ± 0.8 kg/m3. For the same molecule, the mass density (17225 kPa) was 966.36 ± 0.8 kg/m3, the mass density (17250 kPa) was 966.51 ± 0.8 kg/m3 and the mass density (17275 kPa) was 966.6 ± 0.8 kg/m3. It also gave a mass density (17300 kPa) of 966.7 ± 0.8 kg/m3, a mass density (17325 kPa) of 966.85 ± 0.8 kg/m3 and a mass density (17350 kPa) of 966.97 ± 0.8 kg/m3. For the same molecule, the mass density (17375 kPa) was 967.09 ± 0.8 kg/m3, the mass density (17400 kPa) was 967.17 ± 0.8 kg/m3 and the mass density (17425 kPa) was 967.31 ± 0.8 kg/m3. It also gave a mass density (17450 kPa) of 967.41 ± 0.8 kg/m3, a mass density (17475 kPa) of 967.57 ± 0.8 kg/m3 and a mass density (17500 kPa) of 967.66 ± 0.8 kg/m3. For the same molecule, the mass density (17525 kPa) was 967.82 ± 0.8 kg/m3, the mass density (17550 kPa) was 967.9 ± 0.8 kg/m3 and the mass density (17575 kPa) was 968.06 ± 0.8 kg/m3. The mass density (17600 kPa) was 968.15 ± 0.8 kg/m3, the mass density (17625 kPa) was 968.24 ± 0.8 kg/m3 and the mass density (17650 kPa) was 968.4 ± 0.8 kg/m3. The mass density (17675 kPa) was 968.48 ± 0.8 kg/m3, the mass density (17700 kPa) was 968.64 ± 0.8 kg/m3 and the mass density (17725 kPa) was 968.78 ± 0.8 kg/m3. For the same molecule, the mass density (17750 kPa) was 968.88 ± 0.8 kg/m3, the mass density (17775 kPa) was 968.98 ± 0.8 kg/m3 and the mass density (17800 kPa) was 969.12 ± 0.8 kg/m3. The mass density (17825 kPa) was 969.25 ± 0.8 kg/m3, the mass density (17850 kPa) was 969.37 ± 0.8 kg/m3 and the mass density (17875 kPa) was 969.46 ± 0.8 kg/m3. It also gave a mass density (17900 kPa) of 969.6 ± 0.8 kg/m3, a mass density (17925 kPa) of 969.69 ± 0.8 kg/m3 and a mass density (17950 kPa) of 969.8 ± 0.8 kg/m3. It also gave a mass density (17975 kPa) of 969.94 ± 0.8 kg/m3, a mass density (18000 kPa) of 970.08 ± 0.8 kg/m3 and a mass density (18025 kPa) of 970.18 ± 0.8 kg/m3. It also gave a mass density (18050 kPa) of 970.31 ± 0.8 kg/m3, a mass density (18075 kPa) of 970.43 ± 0.8 kg/m3 and a mass density (18100 kPa) of 970.52 ± 0.8 kg/m3. For the same molecule, the mass density (18125 kPa) was 970.66 ± 0.8 kg/m3, the mass density (18150 kPa) was 970.8 ± 0.8 kg/m3 and the mass density (18175 kPa) was 970.91 ± 0.8 kg/m3. It also gave a mass density (18200 kPa) of 970.99 ± 0.8 kg/m3, a mass density (18225 kPa) of 971.16 ± 0.8 kg/m3 and a mass density (18250 kPa) of 971.25 ± 0.8 kg/m3. The mass density (18275 kPa) was 971.39 ± 0.8 kg/m3, the mass density (18300 kPa) was 971.48 ± 0.8 kg/m3 and the mass density (18325 kPa) was 971.57 ± 0.8 kg/m3. The mass density (18350 kPa) was 971.73 ± 0.8 kg/m3, the mass density (18375 kPa) was 971.85 ± 0.8 kg/m3 and the mass density (18400 kPa) was 971.98 ± 0.8 kg/m3. The mass density (18425 kPa) was 972.05 ± 0.8 kg/m3, the mass density (18450 kPa) was 972.17 ± 0.8 kg/m3 and the mass density (18475 kPa) was 972.3 ± 0.8 kg/m3. For the same molecule, the mass density (18500 kPa) was 972.43 ± 0.8 kg/m3, the mass density (18525 kPa) was 972.54 ± 0.8 kg/m3 and the mass density (18550 kPa) was 972.62 ± 0.8 kg/m3. The mass density (18575 kPa) was 972.76 ± 0.8 kg/m3, the mass density (18600 kPa) was 972.9 ± 0.8 kg/m3 and the mass density (18625 kPa) was 973.03 ± 0.8 kg/m3. For the same molecule, the mass density (18650 kPa) was 973.11 ± 0.8 kg/m3, the mass density (18675 kPa) was 973.21 ± 0.8 kg/m3 and the mass density (18700 kPa) was 973.35 ± 0.8 kg/m3. The mass density (18725 kPa) was 973.46 ± 0.8 kg/m3, the mass density (18750 kPa) was 973.6 ± 0.8 kg/m3 and the mass density (18775 kPa) was 973.72 ± 0.8 kg/m3. The mass density (18800 kPa) was 973.84 ± 0.8 kg/m3, the mass density (18825 kPa) was 973.96 ± 0.8 kg/m3 and the mass density (18850 kPa) was 974.07 ± 0.8 kg/m3. It also gave a mass density (18875 kPa) of 974.17 ± 0.8 kg/m3, a mass density (18900 kPa) of 974.28 ± 0.8 kg/m3 and a mass density (18925 kPa) of 974.41 ± 0.8 kg/m3. For the same molecule, the mass density (18950 kPa) was 974.55 ± 0.8 kg/m3, the mass density (18975 kPa) was 974.63 ± 0.8 kg/m3 and the mass density (19000 kPa) was 974.74 ± 0.8 kg/m3. The mass density (19025 kPa) was 974.9 ± 0.8 kg/m3, the mass density (19050 kPa) was 974.98 ± 0.8 kg/m3 and the mass density (19075 kPa) was 975.08 ± 0.8 kg/m3. The mass density (19100 kPa) was 975.18 ± 0.8 kg/m3, the mass density (19125 kPa) was 975.31 ± 0.8 kg/m3 and the mass density (19150 kPa) was 975.44 ± 0.8 kg/m3. For the same molecule, the mass density (19175 kPa) was 975.52 ± 0.8 kg/m3, the mass density (19200 kPa) was 975.66 ± 0.8 kg/m3 and the mass density (19225 kPa) was 975.76 ± 0.8 kg/m3. For the same molecule, the mass density (19250 kPa) was 975.85 ± 0.8 kg/m3, the mass density (19275 kPa) was 976.02 ± 0.8 kg/m3 and the mass density (19300 kPa) was 976.1 ± 0.8 kg/m3. The mass density (19325 kPa) was 976.18 ± 0.8 kg/m3, the mass density (19350 kPa) was 976.34 ± 0.8 kg/m3 and the mass density (19375 kPa) was 976.42 ± 0.8 kg/m3. The mass density (19400 kPa) was 976.53 ± 0.8 kg/m3, the mass density (19425 kPa) was 976.66 ± 0.8 kg/m3 and the mass density (19450 kPa) was 976.74 ± 0.8 kg/m3. The mass density (19475 kPa) was 976.85 ± 0.8 kg/m3, the mass density (19500 kPa) was 976.99 ± 0.8 kg/m3 and the mass density (19525 kPa) was 977.1 ± 0.8 kg/m3. For the same molecule, the mass density (19550 kPa) was 977.22 ± 0.8 kg/m3.
